Reference: publication PMC3466212, “Novel AChE Inhibitors for Sustainable Insecticide Resistance Management” (PLoS ONE, 2012)
Like-named read-outs stand apart in the source and are kept apart here.

Experiments:
[1] = tested on: A. gambiae Acerkis strain larvae; assay: Larval bioassay, Acerkis strain (OP-resistant); type: in vivo, Anopheles gambiae; details: A. gambiae OP-resistant ace-1 R/R larvae
From the text: (§1) Three C. pipiens strains were used: the susceptible reference Slab strain, homozygous for ace-1 ^S [39], the resistant reference SR strain, carrying the genetical background of Slab but homozygous for the G119S mutation, allele ace-1 ^R [21] and the Ducos strain, carrying the genetical background of Slab but homozygous for an ace-1 duplication, with one ace-1^S and ace-1^R copy in tandem. Culex pipiens heterozygous larvae (Slab×SR) were obtained by crossing Slab males and SR females. Two A. gambiae reference strains (S molecular form) were used: the susceptible strain Kisumu, homozygous for ace-1 ^S, collected in Kenya in 1953 and maintained since then under laboratory conditions and the resistant Acerkis strain, carrying the genetical background of Kisumu but homozygous for an ace-1^R allele from a population collected in Bobo-Dioulasso, Burkina Faso [41].
(§2) Insecticidal activity was determined by performing bioassays on fourth-instar larvae as described in [42]. Each compound was dissolved in ethanol. Propoxur (CX) and chlorpyrifos (OP) were used as references. For each compound, we first tested mortality after a 24-hour exposure at 300 µM. […] Mortality data were analyzed by the log-probit program. This program takes into account natural mortality and provides lethal doses (LD) and slopes for each mortality line; it also computes resistance ratios (RR) for each LD, with 95% confidence intervals.

G119S AChE1 [2] = biological target: T1, G119S AChE1 (Culex pipiens, UniProt Q86GC8, G247S); type: biochemical; details: dissociation constant of enzyme-inhibitor complex; five independent replicates; read-out: Kic G119S
T1 construct: made in house; host or cells: Drosophila S2 cells
Experimental: (§3) To identify inhibitors of G119S AChE1, we screened a 3,000-compound chemical library using an assay adapted to a microplate format, [26]. […] For simplification, these compounds will be termed from now as PTF (PyrimidineTrione Furan-substituted) and were classified depending on the substituted positions (Table S1).
Reversibility was tested using a rapid dilution procedure. Residual activity of WT (white bars) and G119S (grey bars) AChE1 were measured after 15 min incubation in presence of inhibitors (striped bars) and are expressed as percentages of control activity. […] Assays were then diluted ten times and residual activity was measured (open bars). Means and standard errors for three independent experiments are shown. (PDF) Click here for additional data file.
(§4) WT and G119S recombinant AChE1s were incubated with 0.25 mM, 0.5 mM or 1 mM inhibitor. Residual activity of G119S (A and C) and WT (B and D) AChE1 was measured in the presence of various concentrations of PTF-20 and substrates. Enzymatic activity was analyzed using the graphical method developed by Dixon, representing reciprocal rates (1/v) (A and B) or reciprocal rates multiplied by substrate concentrations ([S]/v) (C and D) as a function of inhibitor concentration. (PDF) Click here for additional data file.
(§5) Table S3. Dissociation constants (Kic) of enzyme-inhibitor complexes.
(§6) a numbers refer to Table S1
(§7) b data were measured from five independent replicates.
(§8) c competitive inhibitor reference

WT AChE1 [3] = biological target: T2, WT AChE1 (Culex pipiens, UniProt Q86GC8); details: read-out: Kic WT; dissociation constant of enzyme-inhibitor complex; five independent replicates
Experimental: as §3, §4, §5, §6, §7, §8

G119S AChE1 [4] = biological target: T1, G119S AChE1; assay: biochemical; type: biochemical
Experimental: Production of C. pipiens WT and mutated AChE1s in Drosophila S2 cells was already described. The chemical library (ChemBridge, 3,000 compounds) screening was performed in duplicate on G119S recombinant AChE1. Chemicals were made soluble in ethanol or dimethylsulphoxide (DMSO), and then diluted at 300 µM in ethanol for storage. […] PTF analogs were analyzed in dose-response experiments (10-fold serial dilutions from 3 mM to 30 nM), using recombinant WT and G119S AChE1 or mosquito head extracts (heads cut from frozen mosquitoes, homogenized in 400 µl PB containing 1% Triton X-100 and cleared by centrifugation at 9,000×g for 3 min). Depending on compound availability, two to five replicates were performed with distinct batches of enzyme. […] IC50 was estimated by nonlinear least square regression. IC50 was also measured on AChE1 from susceptible and resistant mosquito larvae extracts.

[5] = tested on: C. pipiens SR strain larvae; assay: Larval bioassay, SR strain (OP-resistant); details: for LD50 SR: C. pipiens OP-resistant ace-1 R/R larvae; for Mortality at 300 µM, SR: fourth-instar larvae, 24 hours exposure
From the text: Three C. pipiens strains were used: the susceptible reference Slab strain, homozygous for ace-1 ^S [39], the resistant reference SR strain, carrying the genetical background of Slab but homozygous for the G119S mutation, allele ace-1 ^R [21] and the Ducos strain, carrying the genetical background of Slab but homozygous for an ace-1 duplication, with one ace-1^S and ace-1^R copy in tandem. Culex pipiens heterozygous larvae (Slab×SR) were obtained by crossing Slab males and SR females.
Insecticidal activity was determined by performing bioassays on fourth-instar larvae as described in [42]. Each compound was dissolved in ethanol. Propoxur (CX) and chlorpyrifos (OP) were used as references. For each compound, we first tested mortality after a 24-hour exposure at 300 µM. […] Mortality data were analyzed by the log-probit program.

[6] = tested on: C. pipiens Ducos strain larvae; assay: Larval bioassay, Ducos strain (ace-1 duplication); type: in vivo, Culex pipiens; details: C. pipiens OP-resistant ace-1 D (duplication) larvae
From the text: as §1, §2

F290V AChE1 = biological target: T3, F290V AChE1 (Culex pipiens, UniProt Q86GC8, F416V); type: biochemical; details: F290V OP-insensitive AChE1
T3 construct: made in house; host or cells: Drosophila S2 cells
Experimental: (§9) Production of C. pipiens WT and mutated AChE1s in Drosophila S2 cells was already described. The chemical library (ChemBridge, 3,000 compounds) screening was performed in duplicate on G119S recombinant AChE1. Chemicals were made soluble in ethanol or dimethylsulphoxide (DMSO), and then diluted at 300 µM in ethanol for storage. Compounds (30 µM final concentration) were incubated for 15 min at room temperature with 100 µl of G119S recombinant AChE1 then 100 µl of substrate (acetylthiocholine, 1.6 mM, Sigma-Aldrich) was added and the residual activity was quantified by measuring the optical density at 412 nm, as described by Ellman et al.. PTF analogs were analyzed in dose-response experiments (10-fold serial dilutions from 3 mM to 30 nM), using recombinant WT and G119S AChE1 or mosquito head extracts (heads cut from frozen mosquitoes, homogenized in 400 µl PB containing 1% Triton X-100 and cleared by centrifugation at 9,000×g for 3 min). Depending on compound availability, two to five replicates were performed with distinct batches of enzyme. […] IC50 was estimated by nonlinear least square regression. IC50 was also measured on AChE1 from susceptible and resistant mosquito larvae extracts.
as §6
(§10) b IC50 values were determined from regression analysis of log-concentrations versus

F331W AChE1 = biological target: T4, F331W AChE1 (Culex pipiens, UniProt Q86GC8, F457W); type: biochemical; details: F331W OP-insensitive AChE1
T4 construct: made in house; host or cells: Drosophila S2 cells
Experimental: as §9, §6, §10

[7] = tested on: C. pipiens F1 (SR×Slab) heterozygous larvae; assay: Larval bioassay, heterozygous F1 (SR×Slab); type: in vivo, Culex pipiens; details: C. pipiens heterozygous ace-1 R/ace-1 S larvae
From the text: as §1, §2

WT AChE1 [8] = biological target: T2, WT AChE1; assay: AChE assay (Ellman), dose-response on recombinant WT AChE1; type: biochemical; parameters: made in house; host or cells: Drosophila S2 cells
Experimental: as §9

[9] = tested on: C. pipiens Slab strain larvae; assay: Larval bioassay, Slab strain (OP-susceptible); details: for LD50 Slab: C. pipiens OP-susceptible ace-1 S/S larvae, four to five replicates; for Mortality at 300 µM, Slab: fourth-instar larvae, 24 hours exposure
From the text: as §1, §2

[10] = tested on: A. gambiae Kisumu strain larvae; assay: Larval bioassay, Kisumu strain (OP-susceptible); type: in vivo, Anopheles gambiae; details: A. gambiae OP-susceptible ace-1 S/S larvae
From the text: as §1, §2

[11] = recombinant OP-insensitive G119S C. pipiens AChE1, 15 min incubation, acetylthiocholine, read-out: IC50 G119S
[12] = recombinant wild-type C. pipiens AChE1, 15 min incubation, acetylthiocholine, read-out: IC50 WT

SMILES | LD50 Acerkis [1] [µM] | Ki (G119S AChE1 [2]) [µM] | Ki (WT AChE1 [3]) [µM] | IC50 (G119S AChE1 [4]; [11]) [µM] | LD50 SR [5] [µM] | Mortality at 300 µM, SR [5] [%] | LD50 Ducos [6] [µM] | IC50 (F290V AChE1) [µM] | IC50 (F331W AChE1) [µM] | LD50 F1 (SR×Slab) [7] [µM] | IC50 (WT AChE1 [8]; [12]) [µM] | LD50 Slab [9] [µM] | Mortality at 300 µM, Slab [9] [%] | LD50 Kisumu [10] [µM] | IC50 (G119S AChE1 [4]) [µM] | mortality at 300 µM ([5]; Culex pipiens, 24 h, read-out: Mortality at 300 µM, SR) [%] | IC50 (WT AChE1 [8]) [µM] | mortality at 300 µM ([9]; Culex pipiens, 24 h, read-out: Mortality at 300 µM, Slab) [%]
COc1cccc(N2C(=O)C(=Cc3ccc(C)o3)C(=O)NC2=S)c1 [PTF-29] | 67.7 | 8.9 ± 2.7 | 17.1 ± 6.8 | 33.5 | 398.8 | 63 | 409.0 | 37.4 | 11.2 | 105.1 | 118 | 946.0 | 27 | 164.4 | – | – | – | –
Cc1ccc(C=C2C(=O)NC(=O)N(c3ccc(Cl)cc3)C2=O)o1 [PTF-20] | – | 5.6 ± 0.1 | 56.1 ± 1.8 | 27.5 | 194.0 | 94 | – | 14.5 | 8.3 | – | 330 | 762.0 | 43 | – | – | – | – | –
CCOP(=S)(OCC)Oc1nc(Cl)c(Cl)cc1Cl [Chlorpyrifos, reference compound] | 0.6 | – | – | – | 0.021 | – | 0.0022 | – | – | 0.0015 | – | 0.00019 | – | 0.00095 | – | – | – | –
Cc1ccc(C=C2C(=O)N(C)C(=O)N(C)C2=O)o1 [PTF-39] | – | 41.9 ± 2.3 | 130 ± 9.2 | 7.6 | 200.0 | 81 | 201.9 | 13.9 | 8.7 | 110.0 | 74.3 | 576.0 | 29 | – | – | – | – | –
Cc1ccc(C=C2C(=O)NC(=O)N(c3ccccc3)C2=O)o1 [PTF-3] | 86.6 | 21.8 ± 1.9 | 127 ± 2.8 | 6.2 | 143.0 | 78 | 162.1 | 12.4 | 17.8 | 151.3 | 29.4 | 310.0 | 43 | 109.7 | – | – | – | –
CNC(=O)Oc1ccccc1OC(C)C [Propoxur, reference compound] | 689.6 | – | – | – | 2100 | – | 56.7 | – | – | 2.3 | – | 1.6 | – | 0.1 | 26500 | 0 | 0.3 | 100
COc1ccc(N2C(=O)NC(=O)C(=Cc3ccc(C)o3)C2=O)cc1 [PTF-10] | 50.6 | 64.5 ± 1.8 | 88.2 ± 4.2 | 81.4 | 206.0 | 87 | 232.8 | 85.9 | 88.2 | 207.1 | 592 | 300.0 | 14 | 388.3 | – | – | – | –
Cc1cccc(N2C(=O)C(=Cc3ccc(C)o3)C(=O)NC2=S)c1 [PTF-25] | 12.6 | 24.9 ± 0.6 | 131 ± 3.1 | 28.6 | 70.1 | 68 | 130.8 | 39.3 | 31.9 | 60.0 | 442 | 160.8 | 32 | 46.1 | – | – | – | –
